According to ChEMBL document CHEMBL3885881, “DrugMatrix”:

Species: Rattus norvegicus
Test: DrugMatrix - Regimen: Daily Repeat
Type: toxicity, organism-based, Sprague-Dawley
Set-up: regimen Daily Repeat, gender Male, age 6-8 weeks
Details: in vivo, po, route oral GAVAGE, […]; for ABSOLUTE BASOPHIL / ABSOLUTE EOSINOPHIL / ABSOLUTE LYMPHOCYTE / ABSOLUTE MONOCYTE / ABSOLUTE SEGMENTED NEUTROPHIL / BASOPHIL / EOSINOPHIL / ERYTHROCYTE COUNT / HEMATOCRIT / HEMOGLOBIN / LEUKOCYTE COUNT / LYMPHOCYTE / MEAN CORPUSCULAR HEMOGLOBIN / MEAN CORPUSCULAR HEMOGLOBIN CONCENTRATION / MEAN CORPUSCULAR VOLUME / MONOCYTE / NEUTROPHIL / NUCLEATED RED BLOOD CELLS / PLATELET COUNT: tissue Blood; for ALANINE AMINOTRANSFERASE / ALBUMIN / ALKALINE PHOSPHATASE / ASPARTATE AMINOTRANSFERASE / BLOOD UREA NITROGEN / CARBON DIOXIDE / CHLORIDE / CHOLESTEROL / CREATINE PHOSPHOKINASE / CREATININE / GLUCOSE / LACTATE DEHYDROGENASE / LIPASE / PHOSPHORUS / POTASSIUM / SODIUM / TOTAL BILIRUBIN / TOTAL PROTEIN / URIC ACID: tissue Plasma
[1] = 25 mg/kg, 72 h, dose level Low, time 3 day
[2] = 25 mg/kg, 120 h, dose level Low, time 5 day
[3] = 100 mg/kg, 72 h, dose level High, time 3 day
[4] = 100 mg/kg, 120 h, dose level High, time 5 day

CN(C)CCCN1c2ccccc2Sc2ccccc21 [PROMAZINE]
ABSOLUTE BASOPHIL [1]: 0 CELLS/uL | ABSOLUTE EOSINOPHIL [1]: 145.33 CELLS/uL | ABSOLUTE LYMPHOCYTE [1]: 11142.33 CELLS/uL | ABSOLUTE MONOCYTE [1]: 92 CELLS/uL | ABSOLUTE SEGMENTED NEUTROPHIL [1]: 1153.67 CELLS/uL | BASOPHIL [1]: 0% | EOSINOPHIL [1]: 0.67% | ERYTHROCYTE COUNT [1]: 5.31 x10E6/uL | HEMATOCRIT [1]: 33.93% | HEMOGLOBIN [1]: 13.5 G/DL | LEUKOCYTE COUNT [1]: 12.53 x10E3/uL | LYMPHOCYTE [1]: 87.67% | MEAN CORPUSCULAR HEMOGLOBIN [1]: 25.47 pg | MEAN CORPUSCULAR HEMOGLOBIN CONCENTRATION [1]: 39.77 G/DL | MEAN CORPUSCULAR VOLUME [1]: 63.93 fL | MONOCYTE [1]: 1.33% | NEUTROPHIL [1]: 10.33% | NUCLEATED RED BLOOD CELLS [1]: 0.67 /100WBC | PLATELET COUNT [1]: 1124.33 x10E3/uL | ALANINE AMINOTRANSFERASE [1]: 95 u/L | ALBUMIN [1]: 4.03 G/DL | ALKALINE PHOSPHATASE [1]: 542.33 u/L | ASPARTATE AMINOTRANSFERASE [1]: 104 u/L | BLOOD UREA NITROGEN [1]: 14 mg/dL | CARBON DIOXIDE [1]: 32 mmol/L | CHLORIDE [1]: 101.67 MEQ/L | CHOLESTEROL [1]: 76.67 mg/dL | CREATINE PHOSPHOKINASE [1]: 359.33 u/L | CREATININE [1]: 0.17 mg/dL | GLUCOSE [1]: 185.67 mg/dL | LACTATE DEHYDROGENASE [1]: 147.67 u/L | LIPASE [1]: 9.33 u/L | PHOSPHORUS [1]: 12.17 mg/dL | POTASSIUM [1]: 6.17 MEQ/L | SODIUM [1]: 143.27 MEQ/L | TOTAL BILIRUBIN [1]: 0.17 mg/dL | TOTAL PROTEIN [1]: 5.57 G/DL | URIC ACID [1]: 1.23 mg/dL | ABSOLUTE BASOPHIL [2]: 0 CELLS/uL | ABSOLUTE EOSINOPHIL [2]: 84.33 CELLS/uL | ABSOLUTE LYMPHOCYTE [2]: 7389.33 CELLS/uL | ABSOLUTE MONOCYTE [2]: 65.33 CELLS/uL | ABSOLUTE SEGMENTED NEUTROPHIL [2]: 894.33 CELLS/uL | BASOPHIL [2]: 0% | EOSINOPHIL [2]: 1% | ERYTHROCYTE COUNT [2]: 5.37 x10E6/uL | HEMATOCRIT [2]: 34.2% | HEMOGLOBIN [2]: 13.47 G/DL | LEUKOCYTE COUNT [2]: 8.43 x10E3/uL | LYMPHOCYTE [2]: 88.67% | MEAN CORPUSCULAR HEMOGLOBIN [2]: 25.1 pg | MEAN CORPUSCULAR HEMOGLOBIN CONCENTRATION [2]: 39.4 G/DL | MEAN CORPUSCULAR VOLUME [2]: 63.67 fL | MONOCYTE [2]: 0.67% | NEUTROPHIL [2]: 9.67% | NUCLEATED RED BLOOD CELLS [2]: 0.33 /100WBC | PLATELET COUNT [2]: 1228.67 x10E3/uL | ALANINE AMINOTRANSFERASE [2]: 54.33 u/L | ALBUMIN [2]: 4.17 G/DL | ALKALINE PHOSPHATASE [2]: 463.67 u/L | ASPARTATE AMINOTRANSFERASE [2]: 73.33 u/L | BLOOD UREA NITROGEN [2]: 15 mg/dL | CARBON DIOXIDE [2]: 28.33 mmol/L | CHLORIDE [2]: 103.33 MEQ/L | CHOLESTEROL [2]: 61.67 mg/dL | CREATINE PHOSPHOKINASE [2]: 324.67 u/L | CREATININE [2]: 0.27 mg/dL | GLUCOSE [2]: 188.67 mg/dL | LACTATE DEHYDROGENASE [2]: 154 u/L | LIPASE [2]: 10.33 u/L | PHOSPHORUS [2]: 12.03 mg/dL | POTASSIUM [2]: 5.86 MEQ/L | SODIUM [2]: 145.6 MEQ/L | TOTAL BILIRUBIN [2]: 0.23 mg/dL | TOTAL PROTEIN [2]: 5.97 G/DL | URIC ACID [2]: 1.8 mg/dL | ABSOLUTE BASOPHIL [3]: 0 CELLS/uL | ABSOLUTE EOSINOPHIL [3]: 0 CELLS/uL | ABSOLUTE LYMPHOCYTE [3]: 15637.67 CELLS/uL | ABSOLUTE MONOCYTE [3]: 123 CELLS/uL | ABSOLUTE SEGMENTED NEUTROPHIL [3]: 572.67 CELLS/uL | BASOPHIL [3]: 0% | EOSINOPHIL [3]: 0% | ERYTHROCYTE COUNT [3]: 6.09 x10E6/uL | HEMATOCRIT [3]: 37.23% | HEMOGLOBIN [3]: 15.1 G/DL | LEUKOCYTE COUNT [3]: 16.33 x10E3/uL | LYMPHOCYTE [3]: 96% | MEAN CORPUSCULAR HEMOGLOBIN [3]: 24.83 pg | MEAN CORPUSCULAR HEMOGLOBIN CONCENTRATION [3]: 40.57 G/DL | MEAN CORPUSCULAR VOLUME [3]: 61.17 fL | MONOCYTE [3]: 0.67% | NEUTROPHIL [3]: 3.33% | NUCLEATED RED BLOOD CELLS [3]: 0 /100WBC | PLATELET COUNT [3]: 1276.67 x10E3/uL | ALANINE AMINOTRANSFERASE [3]: 60.33 u/L | ALBUMIN [3]: 4.43 G/DL | ALKALINE PHOSPHATASE [3]: 366.67 u/L | ASPARTATE AMINOTRANSFERASE [3]: 101.33 u/L | BLOOD UREA NITROGEN [3]: 17 mg/dL | CARBON DIOXIDE [3]: 28 mmol/L | CHLORIDE [3]: 101.67 MEQ/L | CHOLESTEROL [3]: 88 mg/dL | CREATINE PHOSPHOKINASE [3]: 986.67 u/L | CREATININE [3]: 0.37 mg/dL | GLUCOSE [3]: 131.67 mg/dL | LACTATE DEHYDROGENASE [3]: 335 u/L | LIPASE [3]: 12.67 u/L | PHOSPHORUS [3]: 11.5 mg/dL | POTASSIUM [3]: 6.17 MEQ/L | SODIUM [3]: 143.73 MEQ/L | TOTAL BILIRUBIN [3]: 0.23 mg/dL | TOTAL PROTEIN [3]: 6.1 G/DL | URIC ACID [3]: 1.2 mg/dL | ABSOLUTE BASOPHIL [4]: 0 CELLS/uL | ABSOLUTE EOSINOPHIL [4]: 74.67 CELLS/uL | ABSOLUTE LYMPHOCYTE [4]: 9603.33 CELLS/uL | ABSOLUTE MONOCYTE [4]: 53.33 CELLS/uL | ABSOLUTE SEGMENTED NEUTROPHIL [4]: 302 CELLS/uL | BASOPHIL [4]: 0% | EOSINOPHIL [4]: 0.67% | ERYTHROCYTE COUNT [4]: 5.25 x10E6/uL | HEMATOCRIT [4]: 32.53% | HEMOGLOBIN [4]: 13.13 G/DL | LEUKOCYTE COUNT [4]: 10.03 x10E3/uL | LYMPHOCYTE [4]: 95.67% | MEAN CORPUSCULAR HEMOGLOBIN [4]: 24.97 pg | MEAN CORPUSCULAR HEMOGLOBIN CONCENTRATION [4]: 40.37 G/DL | MEAN CORPUSCULAR VOLUME [4]: 61.93 fL | MONOCYTE [4]: 0.67% | NEUTROPHIL [4]: 3% | NUCLEATED RED BLOOD CELLS [4]: 0 /100WBC | PLATELET COUNT [4]: 1046.33 x10E3/uL | ALANINE AMINOTRANSFERASE [4]: 59.33 u/L | ALBUMIN [4]: 4.03 G/DL | ALKALINE PHOSPHATASE [4]: 341.67 u/L | ASPARTATE AMINOTRANSFERASE [4]: 113 u/L | BLOOD UREA NITROGEN [4]: 19 mg/dL | CARBON DIOXIDE [4]: 25.67 mmol/L | CHLORIDE [4]: 105 MEQ/L | CHOLESTEROL [4]: 57 mg/dL | CREATINE PHOSPHOKINASE [4]: 469 u/L | CREATININE [4]: 0.22 mg/dL | GLUCOSE [4]: 246.33 mg/dL | LACTATE DEHYDROGENASE [4]: 616 u/L | LIPASE [4]: 10.33 u/L | PHOSPHORUS [4]: 12.93 mg/dL | POTASSIUM [4]: 5.03 MEQ/L | SODIUM [4]: 147.63 MEQ/L | TOTAL BILIRUBIN [4]: 0.2 mg/dL | TOTAL PROTEIN [4]: 5.5 G/DL | URIC ACID [4]: 2.07 mg/dL
